The values that follow come from patent publication US9695133B2, “Quinazolinone-based oncogenic-RAS-selective lethal compounds and their use” (THE TRUSTEES OF COLUMBIA UNIVERSITY IN THE CITY OF NEW YORK, priority 2012, dated 2017).

Read-outs that look alike come from different tables or passages of the source.

For series [1] the following is noted: male, C57BL6/j, mouse, in vivo, po, 20 mg/kg.
For series [2], the system named is BJeLR cells. Briefly: RSL testing: growth inhibition (alamar blue) in BJeLR cells. The settings on record: Homo sapiens, BJeLR. It is filed as cell-based. As for the experimental part:
Cell viability was determined using alamar blue and percent growth inhibition computed as described previously (Id.).

In the case of `CC(C)Oc1ccc(CN2CCNCC2)cc1-n1c(CN2CCN(C(=O)COc3ccc(Cl)cc3)CC2)nc2ccccc2c1=O` [PE, 2-((4-(2-(4-chlorophenoxy)ethanoyl)piperazin-1-yl)methyl)-3-(2-isopropoxy-5-(piperazin-1-ylmethyl)phenyl)quinazolin-4(3H)-one], in series [1] (1 h), the “Brain Concentration, individual mice” value is 18.92 ng/g and the “Brain-Plasma Concentration Ratio, individual mice” value was 0.01 mL/g. Besides, in series [1] (2 h), the “Brain Concentration, individual mice” value is 9.49 ng/g and the “Brain-Plasma Concentration Ratio, individual mice” value is recorded as 0.01 mL/g.
As to `CCOc1ccccc1-n1c(C(C)N2CCN(C(=O)COc3ccc(Cl)cc3)CC2)nc2ccccc2c1=O` (stereo not drawn) [erastin], the EC50 in series [2] (read-out: EC50 (BJELR)) stood at 1800 nM; in series [2] (read-out: EC50 (BJeLR)), 1780 nM.
